Experimental data published in patent US8048893B2, “Pyrazolyl derivatives, preparation process and intermediates of this process as medicinal products and pharmaceutical compositions containing them” (Aventis Pharma SA, priority 2003, dated 2011).

| SMILES | melting point |
| --- | --- |
| CS(=O)(=O)Nc1nn(CCN2CCCCC2)cc1-c1ccccc1 [Example 25, N-[4-Phenyl-1-(2-piperidin-1-ylethyl)-1H-pyrazol-3-yl]-methanesulfonamide] | 121 °C |
| NC(=O)c1ccccc1-c1cnn(CCN2CCCCC2)c1 [Example 72, 2-[1-(2-Piperidin-1-ylethyl)-1H-pyrazol-4-yl]benzamide] | 168 °C |
| CC(Cn1cc(-c2ccccc2)c(O)n1)N(C)C.Cl.Cl (stereo not shown) | 189 °C |
| Cc1c(-c2ccccc2)c(O)nn1CCN1CCCCC1.Cl.Cl | 222 °C |
| CN1CCCC(Cn2cc(-c3ccccc3)c(O)n2)C1 (stereo not shown) [Example 27, 1-(1-Methylpiperidin-3-ylmethyl)-4-phenyl-1H-pyrazol-3-ol] | 132 °C |
| Cl.Cl.Oc1nn(CCN2CCCCCC2)cc1-c1ccccc1 | 228 °C (dec.) |
| Cl.Cl.Oc1nn(CCN2CC3CCC2C3)cc1-c1ccccc1 (stereo not shown) | 173 °C (dec.) |
